Laboratory results reported in article PMC549046 (Comparative Hepatology, 2005).
“And” between values parts separate entries of the source, which are not always exact repeats. Equal entries are not always repeated. “Also recorded” adds a separate entry of the source. Where two headings read alike, the source gives them in different places. Marks after values point to notes of the source that are not given here.

Assays:
11-keto-testosterone = assay: Plasma 11-keto-testosterone analysis (EIA); assay type: in vivo, Atlantic cod (Gadus morhua); conditions: i.p., 5 days; for 11-Keto-Testosterone plasma level: mean (SD), n = 6–8; for Effect on 11-keto-testosterone plasma levels: compared to vehicle or single compounds, in words
Experimental: (§1) Ethical approval licence number of ILAB Bergen: 119. Experiment no. 0204.
(§2) Plasma levels of 17β-estradiol and testosterone were determined using competitive EIA kits from Cayman Chemical (Ann Arbor, MI, USA). Plasma levels of 11-keto-testosterone were analyzed using a competitive EIA kit, from Biosense Laboratories AS (Bergen, Norway). Plasma from each fish was concentrated (2:1) by extraction once with six volumes diethyl ether and 50 μl was analyzed and compared to purified standard substances. The signals were detected at A405 after 40 min (17β-estradiol), 60 min (testosterone) or 80 min (11-keto-testosterone) incubation with substrate solution, using a VICTOR™ 1420 Multilabel Counter.

CYP3A [1] = assay: In vitro pre-incubation of liver microsomes followed by CYP3A western blot; conditions: pooled cod liver microsomes pre-incubated 10, 30, 60 min
Experimental: The CYP3A western blot analysis was performed as described above.

CYP3A [2] = assay: CYP3A 2D gel electrophoresis immunoblot of pooled liver microsomes from treated fish
Experimental: (§3) Hatchery reared juvenile Atlantic cod of both sexes with an average body weight (b.w.) around 400 g were supplied by Sekkingstad, Preserving AS, Hordaland, Norway. The fish were kept in 0.5 m^3 indoor glass fibre tanks, at Industrial Laboratory (ILAB), Bergen High Technology Centre (Bergen, Norway), provided with continuously flowing seawater at a temperature of 8 ± 0.5°C and a salinity of 3.4%. Throughout the experimental period, the fish were subjected to continuous 24 h artificial light (the regime the farm used for optimal fish growth). The fish were acclimated to these conditions for five days prior to the experimental period. […] Control fish were injected with 5 ml peanut oil/kg b.w. (vehicle). There were eight to nine fish in each treatment group. When designing the experiment, we could only test one combination due to limited fish numbers.
After five days exposure, the fish were sacrificed by a sharp blow to the head. Blood samples were collected from the dorsal vein using a heparinized syringe and the liver was quickly dissected out and placed in ice-cold homogenization buffer (0.1 M sodium phosphate buffer pH 7.4, containing 0.15 M KCl, 1 mM EDTA and 1 mM DTT). Liver microsomes were prepared according to the published protocol by Goksøyr, and stored at -80°C. Total microsomal protein content was measured according to a published method by Bradford, using bovine serum albumin as standard, and a SpectraFluor spectrophotometer from Tecan (Grödig/Salzburg, Austria). Blood plasma was isolated by centrifugation at 5,000 g for 10 min at room temperature and stored at -80°C. Ethical approval licence number of ILAB Bergen: 119. Experiment no. 0204.

hepatic BFCOD activities [3] = conditions: ref [13],[22]; read-out: IC50, hepatic BFCOD activity in killifish; cited from earlier work
vitellogenin = assay: Plasma vitellogenin analysis (ELISA); assay type: in vivo, Atlantic cod (Gadus morhua); conditions: i.p., 5 days; for Vitellogenin plasma level: mean (SD), n = 7–8; for Effect on plasma vitellogenin: in words
Experimental: as §1
Plasma levels of vitellogenin protein were determined using a non-competitive sandwich ELISA kit and employing rabbit PAb against Atlantic cod vitellogenin from Biosense Laboratories AS (Bergen, Norway). Each plasma sample was diluted (1:20, 1:15,000 and 1:50,000) and 100 μl was analyzed and compared to purified Atlantic cod vitellogenin protein standards (ranging between 0.12 and 2,000 ng/ml). The signal was detected at A492 after 15 min incubation with substrate solution, using a VICTOR™ 1420 Multilabel Counter.

hepatic BFCOD activities [4] = conditions: ref [13],[22]; read-out: IC50, hepatic BFCOD activity in rainbow trout; cited from earlier work
CYP3A [5] = assay: In vitro inhibition of CYP3A-mediated BFCOD activity in pooled liver microsomes; conditions: both, Atlantic cod (Gadus morhua)
Experimental: (§4) For in vitro inhibition studies, feral Atlantic cod of both sexes were caught off the West coast of Sweden and placed in concrete basins provided with recirculating aerated seawater at 10 ± 2°C and a salinity of 3.0% and alternative light/dark photoperiods of 12 hours. Prior to sampling, the animals were starved and acclimated to these conditions for three weeks. Eight fish were injected i.p. with β-naphthoflavone (BNF), 50 mg/kg b.w. dissolved in peanut oil (5.0 mg/ml). The fish were placed in a 100 l glass aquarium provided with aerated seawater (above) and 30% of the water volume was replaced each day. To eliminate visual stress, the sides of the aquaria were covered with black plastic sheets. After 3 days exposure, the fish were sacrificed. Livers were quickly dissected out and placed in ice-cold homogenization buffer. Livers were pooled from twenty untreated Atlantic cod and from eight BNF treated Atlantic cod, respectively. Microsomal fractions were isolated (above) and stored in aliquots at -80°C. Ethical approval from the Ethical committee of Göteborg license number (99–2003).
(§5) The CYP1A activity was determined as EROD activity, using resorufin as standard in a SpectraFluor plate reader according to the protocol provided by Nilsen et al.. The CYP3A catalytic activity was measured as BFCOD activity, using HFC as standard. The BFC assay was performed based on a published protocol by Miller et al. and optimized for rainbow trout liver microsomes (T. Hegelund and M. Celander, unpublished data). The reaction mixture consisted of 200 μM BFC, bovine serum albumin (1.6 mg/ml), 2 μM NADPH and 10 μl liver microsomes in a total volume of 200 μl in 0.2 M potassium phosphate buffer pH 7.4 in a 96-multiwell plate using a VICTOR™ 1420 Multilabel Counter from Wallac Sverige AB (Upplands Väsby, Sweden).
(§6) In vitro inhibition studies were carried out in 96-multiwell plates using a VICTOR™ 1420 Multilabel Counter. […] The substances were dissolved in DMSO and diluted with ethanol. The final concentrations never exceeded 0.01% (v/v) DMSO and 0.001% ethanol (v/v). For CYP1A and CYP3A inhibition studies, pooled liver microsomes from BNF-treated and from untreated Atlantic cod, respectively, were used.

[6] = tested on: Hepatic Microsomal CYP3A activity; assay: as above; conditions: for Type of inhibition of CYP3A (BFCOD) activity: cod liver microsomes, Dixon plots
Experimental: as §4, §5, §6

CYP3A [7] = assay: In vivo hepatic CYP3A protein expression (western blot); conditions: i.p., 5 days, KC 12, NP 25, KC+NP 12+25 mg/kg
Experimental: as §3, with “There were eight to nine fish in each treatment group. When designing the experiment, we could only test one combination due to limited fish numbers.” left out
(§7) After five days exposure, the fish were sacrificed by a sharp blow to the head. […] Total microsomal protein content was measured according to a published method by Bradford, using bovine serum albumin as standard, and a SpectraFluor spectrophotometer from Tecan (Grödig/Salzburg, Austria). […]
(§8) Western blot analyses of 40 μg hepatic microsomal protein were carried out using enhanced chemoluminescence (ECL), based on the protocol previously described and PAb raised against rainbow trout CYP1A and CYP3A [41, 55, 56]. The intensity of each protein band was determined by densitometry on scanned fluorograms using Labview 7.0 from National Instruments (Austin, TX, USA).

[8] = tested on: Hepatic Microsomal CYP3A activity; parameters: method as in PMID 15084407; conditions: pooled cod liver microsomes; substrate BFC; published earlier, ref [22]; read-out: IC50, hepatic microsomal CYP3A (BFCOD) activity; cited from earlier work
17β-estradiol = assay: Plasma 17β-estradiol analysis (EIA); assay type: in vivo, Atlantic cod (Gadus morhua); conditions: i.p., 5 days; for 17β-Estradiol plasma level: mean (SD), n = 8; for Effect on 17β-estradiol plasma levels: compared to vehicle or single compounds, in words
Experimental: as §1, §2

[9] = biological target: T1, Hepatic Microsomal CYP1A activity (Gadus morhua, UniProt A0ACE1MZ74); assay: In vitro inhibition of CYP1A-mediated EROD activity in pooled liver microsomes; conditions: for Type of inhibition of CYP1A (EROD) activity: cod liver microsomes, Dixon plots
T1 sequence (A0ACE1MZ74 1-519): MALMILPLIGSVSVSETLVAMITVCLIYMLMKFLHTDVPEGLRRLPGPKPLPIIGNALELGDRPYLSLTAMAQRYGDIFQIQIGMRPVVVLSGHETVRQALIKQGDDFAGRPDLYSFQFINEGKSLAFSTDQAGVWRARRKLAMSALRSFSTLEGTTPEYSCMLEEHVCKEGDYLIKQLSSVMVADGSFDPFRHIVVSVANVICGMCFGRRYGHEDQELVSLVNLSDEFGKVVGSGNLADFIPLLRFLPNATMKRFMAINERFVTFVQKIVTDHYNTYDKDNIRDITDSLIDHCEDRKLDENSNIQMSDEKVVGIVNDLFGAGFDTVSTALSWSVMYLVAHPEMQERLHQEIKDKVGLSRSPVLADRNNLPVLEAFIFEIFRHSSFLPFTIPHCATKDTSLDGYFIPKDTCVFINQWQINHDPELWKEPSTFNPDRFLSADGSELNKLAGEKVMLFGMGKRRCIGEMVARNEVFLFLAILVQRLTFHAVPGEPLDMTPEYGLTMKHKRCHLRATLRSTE
Experimental: as §4, §5, §6

CYP1A [10] = biological target: T2, CYP1A (Gadus morhua, UniProt A0ACE1MZ74); assay: as above; conditions: both, Atlantic cod (Gadus morhua); for Ki: hepatic microsomal CYP1A (EROD) activity
T2 sequence (A0ACE1MZ74 1-519): T1 sequence (A0ACE1MZ74 1-519)
Experimental: as §4, §5, §6

CYP1A [11] = assay: In vivo hepatic CYP1A protein expression (western blot); conditions: i.p., 5 days, NP 25 mg/kg, ethynylestradiol 5 mg/kg
Experimental: as §3, with “There were eight to nine fish in each treatment group. When designing the experiment, we could only test one combination due to limited fish numbers.” left out
as §7, §8

[12] = biological target: T3, cDNA Expressed Human CYP3A4 (Homo sapiens, UniProt P08684); assay: Inhibition of BFCOD activity in cDNA expressed human CYP3A4 baculovirus supersomes; assay type: biochemical; conditions: substrate BFC
T3 construct: purchased BD Biosciences Company, Gentest (Woburn, MA, USA); host or cells: baculovirus expression system (supersomes)
T3 sequence (P08684 whole entry): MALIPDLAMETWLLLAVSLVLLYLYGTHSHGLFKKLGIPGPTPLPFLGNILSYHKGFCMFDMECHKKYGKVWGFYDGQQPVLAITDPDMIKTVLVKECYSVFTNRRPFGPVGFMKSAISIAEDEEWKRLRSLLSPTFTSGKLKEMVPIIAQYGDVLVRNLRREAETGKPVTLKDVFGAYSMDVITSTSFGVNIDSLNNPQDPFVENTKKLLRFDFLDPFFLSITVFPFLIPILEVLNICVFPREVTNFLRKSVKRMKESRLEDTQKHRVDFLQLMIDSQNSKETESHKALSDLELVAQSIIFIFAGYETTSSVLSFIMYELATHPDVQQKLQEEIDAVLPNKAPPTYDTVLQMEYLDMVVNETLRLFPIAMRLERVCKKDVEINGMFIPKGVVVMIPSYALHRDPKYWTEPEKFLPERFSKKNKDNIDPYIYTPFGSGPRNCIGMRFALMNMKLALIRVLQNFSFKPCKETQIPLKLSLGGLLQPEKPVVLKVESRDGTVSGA

CYP1A [13] = assay: In vivo hepatic CYP1A enzyme (EROD) activity after i.p. exposure; conditions: 5 days, NP 25 mg/kg, ethynylestradiol 5 mg/kg
Experimental: as §3, §7
The CYP1A activity was determined as EROD activity, using resorufin as standard in a SpectraFluor plate reader according to the protocol provided by Nilsen et al.. The CYP3A catalytic activity was measured as BFCOD activity, using HFC as standard. […]

testosterone = assay: Plasma testosterone analysis (EIA); assay type: in vivo, Atlantic cod (Gadus morhua); conditions: i.p., 5 days
Experimental: as §3
After five days exposure, the fish were sacrificed by a sharp blow to the head. Blood samples were collected from the dorsal vein using a heparinized syringe and the liver was quickly dissected out and placed in ice-cold homogenization buffer (0.1 M sodium phosphate buffer pH 7.4, containing 0.15 M KCl, 1 mM EDTA and 1 mM DTT). […] Total microsomal protein content was measured according to a published method by Bradford, using bovine serum albumin as standard, and a SpectraFluor spectrophotometer from Tecan (Grödig/Salzburg, Austria). […]

[14] = 2D gel immunoblot, pooled liver microsomes of 8–9 treated fish
[15] = no [S] level stated, Dixon plot

SMILES | 11-Keto-Testosterone plasma level (11-keto-testosterone) | Induction of the more basic CYP3A-immunoreactive isoform (pI around 5.1) (CYP3A [2]; [14]) | Vitellogenin plasma level (vitellogenin) | Type of inhibition of CYP3A (BFCOD) activity [6] | Effect on CYP3A protein expression (CYP3A [7]) | 17β-Estradiol plasma level (17β-estradiol) | Effect on 11-keto-testosterone plasma levels (11-keto-testosterone) | Type of inhibition of CYP1A (EROD) activity [9] | IC50 (CYP1A [10]) | Ki (CYP1A [10]; [15]) | Effect on plasma vitellogenin (vitellogenin) | IC50 (CYP3A [5]; microsomes, pH 7.4) | Effect on 17β-estradiol plasma levels (17β-estradiol) | other results
CC(=O)N1CCN(c2ccc(OCC3COC(Cn4ccnc4)(c4ccc(Cl)cc4Cl)O3)cc2)CC1 (stereo not shown) [ketoconazole] | 71 (46) pg/ml plasma | inducible; also recorded: induced | 0.6 (0.9) μg/ml plasma | non-competitive inhibitor | no effect | 60 (26) pg/ml plasma | – | – | – | – | – | – | – | Effect of pre-incubation on hepatic microsomal CYP3A protein levels (CYP3A [1]): no effects; IC50 (hepatic BFCOD activities [3]): 10 nM; IC50 (hepatic BFCOD activities [4]): 100 nM; Ki (CYP3A [5]; microsomes, pH 7.4): […]; Ki, hepatic microsomal CYP3A (BFCOD) activity [6, 15]: sub-μM range; IC50 [8]: 300 nM
CCCCCCCCCc1ccc(O)cc1 [nonylphenol, 4-nonylphenol] | 42 (67) pg/ml plasma | did not induce | 266 (199) ^a μg/ml plasma | – | no effect | 76 (52) pg/ml plasma | no statistically significant effect | non-competitively inhibited | 5.2 µM | ~3.5 µM | induction | 160 µM | no statistically significant effect | Type of inhibition of CYP1A (EROD) activity ([9]; listed as Nonylphenol): non-competitive inhibitor; Ki ([9]; read-out: Ki, hepatic microsomal CYP1A (EROD) activity, no [S] level stated, Dixon plot, listed as Nonylphenol (NP)): 3.5 µM; Effect on CYP1A protein expression (CYP1A [11]): no effect; IC50 [12]: 35 µM; Decrease in CYP1A (EROD) activity compared to fish exposed to ketoconazole + nonylphenol (CYP1A [13]): 65%; Reduction of CYP1A (EROD) activity compared to vehicle treated fish (CYP1A [13]): 41% and 40%
C#C[C@]1(O)CC[C@H]2[C@@H]3CCc4cc(O)ccc4[C@H]3CC[C@@]21C [ethynylestradiol, 17α-ethynylestradiol] | 35 (23) pg/ml plasma | – | 4,350 (1,463) ^a μg/ml plasma | uncompetitive inhibitor | – | 100 (69) pg/ml plasma | no statistically significant effect | non-competitive inhibitor | 20 µM | 5.4 to 10.3 µM | induction | 40 µM | no statistically significant effect | Ki (CYP1A [10]; high [S], high [S] 7-ethoxyresorufin, one representative Dixon plot): 10.3 µM; Ki (CYP1A [10]; low [S], low [S] 7-ethoxyresorufin, one representative Dixon plot): 5.4 µM; Induction of the more basic CYP3A-immunoreactive isoform (pI around 5.1) (CYP3A [2]; in vivo): did not induce; Ki (CYP3A [5]; pooled liver microsomes from untreated Atlantic cod, pH 7.4, probe BFC): 54 to 95 µM; Ki (CYP3A [5]; pooled liver microsomes from untreated Atlantic cod, pH 7.4, probe BFC (high [S])): 95 µM; Ki (CYP3A [5]; pooled liver microsomes from untreated Atlantic cod, pH 7.4, probe BFC (low [S])): 54 µM; Effect on testosterone plasma levels (testosterone; compared to vehicle or single compounds, in words): no statistically significant effect; Testosterone plasma level (testosterone; mean (SD), n = 7–8): 90 (40) pg/ml plasma
